In patent publication US8426448B2, “1,5-diphenyl-pyrrolidin-2-one compounds as CB-1 ligands” (Eli Lilly and Company, priority 2008, dated 2013):
Where a name gives a salt, the structure may show the parent alone.

Columns and labels:
Male NIH Swiss mice = assay: Forced swim test (FST); format: in vivo; set-up: key to Dunett's Test (0.05) * against vehicle, # against Imipramine: * against vehicle; # against Imipramine; conditions: for minimum effective dose (MED) in forced swim test: Dunett's Test (0.05) statistically significant; for Seconds of immobility: last 4 min of 6 min swim, n = 8; for Dunett's Test (0.05) * against vehicle, # against Imipramine: immobility time
From the text: The forced swim test is a well established animal model for depression, anxiety and avolition (lack of motivation)(Porsolt, et al. Nature (1977) 266, 730) (J. M. Witkin et al., Trends Pharmacol Sci. 2005 26:609-17). It can also be used as a model for the treatment of negative symptoms of schizophrenia.
Male NIH Swiss mice (Harlan Sprague-Dawley) are housed 12 mice/cage for 7-10 days prior to testing. On the day of testing, mice weighing 25-30 g, are brought to the testing room at least 1 hr. prior to dosing. Mice are dosed (p.o.) at 6-8 min. intervals with either vehicle (1% CMC/0.5% SLS/0.08% povidone/0.05 antifoam for CB1 inverse agonists) or test compound and put it into a clean cage (4 mice/cage).
To test, mice are placed individually in clear plastic cylinders (about 10 cm diameter×25 cm height) filled to 6 cm with water at 22-25° C. for six min. The duration of immobility during the last 4 min. is recorded. A mouse is regarded as immobile when floating motionless or making only those movements necessary to keep its head above the water.
The immobility time (in seconds) is analyzed by ANOVA using Dunnett's test. The minimum effective dose (MED) is considered to be the lowest dose of test compound at which a statistically significant decrease in the immobility time is observed versus the vehicle control.

rCB-1 = molecular target: T1, rCB-1 (Rattus norvegicus, UniProt P20272); assay: rCB1-CHO antagonist mode SPA GTP-γ-35S binding assay; format: biochemical; conditions: antagonist mode vs methanandamide; read-out: rCB-1 SPA GTPγS CHO Membrane Antagonist Kb
T1 construct: purchased Applied Cell Sciences, Rockville, Md; host or cells: CHO cell membranes
Description: (§1) Compounds of the present invention may be tested for functional activity at the CB-1 and CB-2 receptors in both agonist and antagonist modes using SPA (Scintillation Proximity Assay) based GTP-γ-^35S binding assays. All assay components are prepared in assay buffer (20 mM HEPES, 100 mM NaCl, 5 mM MgCl2, pH 7.4) at room temperature. Semi-log dilutions of test compound are prepared in assay buffer containing BSA (0.125% final conc.) for the agonist mode assays. For the antagonist mode assays, test compounds are prepared in the same manner but also include an 80% efficacious dose of a full agonist (methanandamide). GTP-γ^35S binding for the antagonist assay may be measured in a 96 well format using a modification of an antibody capture technique previously described. (DeLapp, N W, et al. (1999) J Pharmacol Exp Ther 289:946-955.) The CB-2 receptor agonist activity may be measured using a similar method using hCB2-Sf9 membranes. The CB-1 receptor agonist activity may be measured using a whole membrane capture technique using hCB1-CHO membranes. All incubations are done at room temperature.
(§2) hCB1-CHO or rCB1-CHO membranes (Applied Cell Sciences, Rockville, Md.) and GDP (1 μM final) are added to ice cold assay buffer and homogenized. […] Plates are then centrifuged at 700×g for 10 min. and the radioactivity counted.
(§3) Data are analyzed as follows: Background is subtracted from all wells. […] Percent antagonist inhibition is calculated by first normalizing the data to the signal generated by a saturating concentration of the full agonist (methanandamide). Then the data are analyzed using a 4-parameter logistic reduced fit (Activity Base™ and XLFit3™ from IDBS, Emeryville, Calif.). Kb values are determined using a modification of the Cheng-Prusoff relationship: Kb=IC50/(1+[agonist]/EC50), where “IC50” is determined from a four parameter fit of displacement curves, “[agonist]” is the agonist challenge concentration (nM), and “EC50” is determined from a four parameter fit of a full agonist concentration response curve (Cheng and Prusoff 1973). […]

hCB-2 [1] = molecular target: T2, hCB-2 (Homo sapiens, UniProt P34972); assay: hCB2-Sf9 antagonist mode SPA GTP-γ-35S binding assay; format: biochemical; conditions: antagonist mode vs methanandamide; read-out: hCB-2 SPA GTPγS Sf9 Membrane Antagonist Kb
T2 construct: purchased Perkin Elmer, Boston, Mass; host or cells: Sf9 cell membranes
Description: (§4) Compounds of the present invention may be tested for functional activity at the CB-1 and CB-2 receptors in both agonist and antagonist modes using SPA (Scintillation Proximity Assay) based GTP-γ-^35S binding assays. All assay components are prepared in assay buffer (20 mM HEPES, 100 mM NaCl, 5 mM MgCl2, pH 7.4) at room temperature. Semi-log dilutions of test compound are prepared in assay buffer containing BSA (0.125% final conc.) for the agonist mode assays. For the antagonist mode assays, test compounds are prepared in the same manner but also include an 80% efficacious dose of a full agonist (methanandamide). GTP-γ^35S binding for the antagonist assay may be measured in a 96 well format using a modification of an antibody capture technique previously described. (DeLapp, N W, et al. (1999) J Pharmacol Exp Ther 289:946-955.) The CB-2 receptor agonist activity may be measured using a similar method using hCB2-Sf9 membranes. The CB-1 receptor agonist activity may be measured using a whole membrane capture technique using hCB1-CHO membranes. All incubations are done at room temperature. […]
(§5) Data are analyzed as follows: Background is subtracted from all wells. […] Percent antagonist inhibition is calculated by first normalizing the data to the signal generated by a saturating concentration of the full agonist (methanandamide). Then the data are analyzed using a 4-parameter logistic reduced fit (Activity Base™ and XLFit3™ from IDBS, Emeryville, Calif.). Kb values are determined using a modification of the Cheng-Prusoff relationship: Kb=IC50/(1+[agonist]/EC50), where “IC50” is determined from a four parameter fit of displacement curves, “[agonist]” is the agonist challenge concentration (nM), and “EC50” is determined from a four parameter fit of a full agonist concentration response curve (Cheng and Prusoff 1973). Mean Kb values are calculated as a mean of at least three independent determinations±standard error of the mean (SEM). […]

hCB-2 [2] = molecular target: T2, hCB-2; assay: hCB2-Sf9 agonist mode SPA GTP-γ-35S binding assay; format: biochemical; conditions: read-out: hCB-2 SPA GTPγS Sf9 Membrane Agonist Relative EC50
Description: as §4
Data are analyzed as follows: Background is subtracted from all wells. […] Percent antagonist inhibition is calculated by first normalizing the data to the signal generated by a saturating concentration of the full agonist (methanandamide). […]

hCB-1 [3] = molecular target: T3, hCB-1 (Homo sapiens, UniProt P21554); assay: hCB1-Sf9 antagonist mode SPA GTP-γ-35S binding assay; format: biochemical; set-up: purchased Applied Cell Sciences, Rockville, Md; conditions: Sf9 membrane 22.7 μg; antagonist mode vs methanandamide; read-out: hCB-1 SPA GTPγS Sf9 Membrane 22.7 μg Antagonist Kb
Description: as §4, §5

hCB-1 [4] = molecular target: T3, hCB-1; assay: hCB1-CHO antagonist mode SPA GTP-γ-35S binding assay; format: biochemical; set-up: purchased Applied Cell Sciences, Rockville, Md; host or cells: CHO cell membranes; conditions: antagonist mode vs methanandamide; read-out: hCB-1 SPA GTPγS CHO Membrane Antagonist Kb
Description: as §1, §2, §3

hCB-1 [5] = molecular target: T3, hCB-1; assay: hCB1-CHO agonist mode SPA GTP-γ-35S binding assay; format: biochemical; set-up: purchased Applied Cell Sciences, Rockville, Md; host or cells: CHO cell membranes; conditions: inverse agonism, read-out: hCB-1 SPA GTPγS CHO Membrane Agonist Relative EC50 inverse
Description: as §1
hCB1-CHO membrane, GDP (1 μM final conc.), and saponin (10 μg/mL final conc., Sigma, St Louis, Mo.) are combined and prepared on ice as for the antagonist assays, above. Diluted test compounds, GTP-γ-^35S ([…] final conc.) and membranes are combined in the assay plate and incubated for 30 min. Then 1 mg/well Wheatgerm Agglutinin SPA beads (GE Healthcare, Piscataway, N.J.) are added, plates are sealed and vortexed and incubate for 1 hr. before spinning and counting in the same fashion as for the antagonist assays, above.
Data are analyzed as follows: Background is subtracted from all wells. Percent agonist efficacy is determine by normalizing agonist/inverse agonist dose response data to the response obtained for a full agonist (methanandamide). Percent antagonist inhibition is calculated by first normalizing the data to the signal generated by a saturating concentration of the full agonist (methanandamide). Then the data are analyzed using a 4-parameter logistic reduced fit (Activity Base™ and XLFit3™ from IDBS, Emeryville, Calif.). Kb values are determined using a modification of the Cheng-Prusoff relationship: Kb=IC50/(1+[agonist]/EC50), where “IC50” is determined from a four parameter fit of displacement curves, “[agonist]” is the agonist challenge concentration (nM), and “EC50” is determined from a four parameter fit of a full agonist concentration response curve (Cheng and Prusoff 1973). Mean Kb values are calculated as a mean of at least three independent determinations±standard error of the mean (SEM). […]

Rat oral bioavailability = format: in vivo; conditions: Sprague-Dawley, plasma, fasted male SD rats, IV 0.25 mg/kg (20% MEOP/80% water), PO 1 mg/kg (1% NaCMC/0.5% SLS/0.05% antifoam), based on AUC0-∞
Description: (§6) Cohorts of three or four 250-450 gram male Sprague-Dawley rats or approximately 10 kg Beagle dogs (female or male) are used. […] Dogs are administered i.v. by cannulated cephalic vein and blood collections are by jugular vein. Animals are first dosed at 0.25 mg/kg i.v. and blood samples (0.2 mL) are then collected using EDTA as an anticoagulant at 0.0830, 0.25, 0.50, 1, 2, 4, 8, 12, 24, 48, 72, 96, and 120 hours. Next after at least two days and after 18-24 hours fasting, the animals are dosed at 1.0 mg/kg by oral gavage. During the course of a study the total of blood (ml) collected is not to exceed 1% of total body weight in grams. Should larger blood volumes be required, the sampled blood volume is replace with heparinized whole blood from a donor animal. When using a cross-over study design, rats receive a volume of heparinized whole blood following the final sample of each study day approximately equal to that removed during study.
(§7) Compound plasma concentrations are measured by LC/MS/MS assays. Data are then analyzed using standard non-compartmental pharmacokinetic analysis. Oral bioavailability is calculated as: (AUC0-infinity,oral/AUC0-infinity,i.v.)×(Dose,i.v./Dose,oral)×100%

Dog oral bioavailability = format: in vivo; conditions: plasma; fasted male beagle dog; IV 0.25 mg/kg, PO 1 mg/kg; Mean±SD, n=3; based on AUC0-24hr
Description: as §6, §7

T3 sequence (P21554 whole entry): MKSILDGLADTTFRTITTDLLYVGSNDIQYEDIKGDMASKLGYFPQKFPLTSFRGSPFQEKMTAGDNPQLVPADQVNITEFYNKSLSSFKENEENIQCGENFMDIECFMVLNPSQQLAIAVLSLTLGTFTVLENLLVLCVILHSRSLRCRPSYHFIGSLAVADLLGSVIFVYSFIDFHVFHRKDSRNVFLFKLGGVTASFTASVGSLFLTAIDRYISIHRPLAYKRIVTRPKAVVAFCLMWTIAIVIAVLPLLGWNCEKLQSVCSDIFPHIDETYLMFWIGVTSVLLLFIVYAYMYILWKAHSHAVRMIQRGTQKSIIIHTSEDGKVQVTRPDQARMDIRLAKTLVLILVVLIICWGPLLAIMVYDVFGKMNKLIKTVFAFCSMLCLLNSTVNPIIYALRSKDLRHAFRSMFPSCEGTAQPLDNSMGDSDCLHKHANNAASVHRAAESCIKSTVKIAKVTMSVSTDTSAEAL
T2 sequence (P34972 whole entry): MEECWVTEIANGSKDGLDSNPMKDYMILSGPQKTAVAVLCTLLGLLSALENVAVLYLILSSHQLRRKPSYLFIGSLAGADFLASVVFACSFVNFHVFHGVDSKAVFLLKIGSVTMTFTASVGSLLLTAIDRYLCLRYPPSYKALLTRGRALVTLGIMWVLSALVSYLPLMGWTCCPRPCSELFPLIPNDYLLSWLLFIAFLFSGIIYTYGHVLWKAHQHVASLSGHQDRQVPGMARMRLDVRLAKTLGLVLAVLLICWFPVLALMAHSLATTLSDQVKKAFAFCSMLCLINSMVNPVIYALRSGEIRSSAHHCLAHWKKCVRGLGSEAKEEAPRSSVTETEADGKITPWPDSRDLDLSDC
T1 sequence (P20272 whole entry): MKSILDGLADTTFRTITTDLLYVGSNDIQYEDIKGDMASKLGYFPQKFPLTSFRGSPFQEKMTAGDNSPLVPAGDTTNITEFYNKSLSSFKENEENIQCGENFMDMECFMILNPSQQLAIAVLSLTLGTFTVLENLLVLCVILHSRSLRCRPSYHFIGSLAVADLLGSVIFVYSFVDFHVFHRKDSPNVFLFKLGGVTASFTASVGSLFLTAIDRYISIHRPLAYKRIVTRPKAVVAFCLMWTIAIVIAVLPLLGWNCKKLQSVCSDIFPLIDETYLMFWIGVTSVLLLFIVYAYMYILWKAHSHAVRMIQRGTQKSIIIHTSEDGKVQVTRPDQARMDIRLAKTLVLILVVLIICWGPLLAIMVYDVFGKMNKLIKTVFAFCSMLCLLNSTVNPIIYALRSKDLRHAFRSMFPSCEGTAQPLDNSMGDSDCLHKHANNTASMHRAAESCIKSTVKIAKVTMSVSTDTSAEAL

Q: Which “minimum effective dose (MED) in forced swim test” value (Male NIH Swiss mice; mice, p.o.) does the source give for `CC(C)(N[C@@H]1C[C@H](c2cccc(OC(F)(F)F)c2)N(c2ccc(C(F)(F)F)cc2)C1=O)c1cccc(C(F)(F)F)n1` [Example 11, (3R,5R)-3-[1-Methyl-1-(6-trifluoromethyl-pyridin-2-yl)-ethylamino]-5-(3-trifluoromethoxy-phenyl)-1-(4-trifluoromethyl-phenyl)-pyrrolidin-2-one] here?
A: 3 mg/kg

Q: Which Kb (rCB-1) does the source give for `CC(C)(N[C@@H]1C[C@H](c2cccc(C(F)(F)F)c2)N(c2ccc(OC(F)(F)F)cc2)C1=O)c1cccc(C(F)(F)F)n1` [Example 28, (3R,5R)-3-[1-Methyl-1-(6-trifluoromethyl-pyridin-2-yl)-ethylamino]-5-(3-trifluoromethyl-phenyl)-1-(4-trifluoromethoxy-phenyl)-pyrrolidin-2-one] here?
A: 0.756 nM

Q: What about the Kb (hCB-2 [1]) of the same molecule?
A: > 11900 nM

Q: And the EC50 (hCB-2 [2])?
A: > 100000 nM

Q: What about the “minimum effective dose (MED) in forced swim test” value (Male NIH Swiss mice; mice, p.o.) of the same molecule?
A: 10 mg/kg

Q: What about the Kb (hCB-1 [3]) of the same molecule?
A: 1.76 nM

Q: And the Kb (hCB-1 [4])?
A: 2.37 nM

Q: What about the EC50 (hCB-1 [5]) of the same molecule?
A: 3.02 nM

Q: Which Seconds of immobility (Male NIH Swiss mice; 1 mg/Kg p.o., mice) does the source give for `CC(C)(N[C@@H]1C[C@H](c2cccc(OC(F)(F)F)c2)N(c2ccc(C#N)cc2)C1=O)c1cccc(C(F)(F)F)n1` [Example 27, 4-[(3R,5R)-3-[1-Methyl-1-(6-trifluoromethyl-pyridin-2-yl)-ethylamino]-2-oxo-5-(3-trifluoromethoxy-phenyl)-pyrrolidin-1-yl]-benzonitrile] here?
A: 170 s

Q: What about the “Dunett's Test (0.05) * against vehicle, # against Imipramine” value (“Dunett's Test (0.05) * against vehicle” below) (Male NIH Swiss mice; 1 mg/Kg) of the same molecule?
A: #

Q: What about the Seconds of immobility (Male NIH Swiss mice; 3 mg/Kg p.o., mice) of the same molecule?
A: 128 s

Q: And the “Dunett's Test (0.05) * against vehicle” value (Male NIH Swiss mice; 3 mg/Kg)?
A: *

Q: And the Seconds of immobility (Male NIH Swiss mice; 10 mg/Kg p.o., mice)?
A: 80 s

Q: And the “Dunett's Test (0.05) * against vehicle” value (Male NIH Swiss mice; 10 mg/Kg)?
A: *

Q: What about the “duration of immobility in forced swim test” value (Male NIH Swiss mice; mice, p.o., result in words) of the same molecule?
A: significantly reduce the duration of mobility in a dose dependent manner

Q: With `CC(C)(N[C@@H]1C[C@H](c2cccc(OC(F)(F)F)c2)N(c2ccc(C#N)cc2)C1=O)c1cccc(C(F)(F)F)n1` [Example 27HCl Salt, 4-[(3R,5R)-3-[1-methyl-1-(6-trifluoromethyl-pyridin-2-yl)-ethylamino]-2-oxo-5-(3-trifluoromethoxy-phenyl)-pyrrolidin-1-yl]-benzonitrile hydrochloride] as the molecule, how does the bioavailability (Rat oral bioavailability) read?
A: 58 ± 8.6%

Q: And the bioavailability (Dog oral bioavailability)?
A: 33 ± 13%

Q: With `CN(C)CCCN1c2ccccc2CCc2ccccc21` [Imipramine, reference compound] as the molecule, how does the “Dunett's Test (0.05) * against vehicle” value (Male NIH Swiss mice; 15 mg/Kg) read?
A: *

Q: And the Seconds of immobility (Male NIH Swiss mice; 15 mg/Kg, mice)?
A: 80 s
